Measurements: ChEMBL document CHEMBL5634175, “Genome-Driven Discovery of Hygrocins in Streptomyces rapamycinicus” (2024)

Key:
Format in all cases: functional
Pseudomonas aeruginosa = test: Antibacterial activity against Pseudomonas aeruginosa PAO1 incubated for 12 hrs by broth microdilution method
Candida albicans = test: Antifungal activity against Candida albicans IBT 656 incubated for 24 hrs by broth microdilution method
Bacillus subtilis = test: Antibacterial activity against Bacillus subtilis incubated for 12 hrs by broth microdilution method
Staphylococcus aureus = test: Antibacterial activity against Staphylococcus aureus 8325 incubated for 12 hrs by broth microdilution method

Measured: MIC

CC[C@@H](/C=C/[C@H](OC(=O)/C(C)=C\[C@@H]1C(=O)NC2=CC(=O)c3cc(O)c(C)cc3[C@]21O)[C@H](C)O)CCC(=O)O
> 50 µg/mL: all assays above

CC[C@@H](/C=C/[C@H](OC(=O)/C(C)=C\[C@H]1C(=O)NC2=CC(=O)c3cc(O)c(C)cc3[C@@]21O)[C@H](C)O)CCC(=O)O
> 50 µg/mL: all assays above

CC[C@@H](/C=C/[C@H](OC(=O)/C(C)=C\C1=C2C(=CC(=O)c3cc(O)c(C)cc32)NC1=O)[C@H](C)O)CCC(=O)O
> 50 µg/mL: all assays above

CC[C@@H](/C=C/[C@H](O)[C@H](C)OC(=O)/C(C)=C\C1=C2C(=CC(=O)c3cc(O)c(C)cc32)NC1=O)CCC(=O)O
> 50 µg/mL: all assays above

CC[C@H]1/C=C/[C@H](O)[C@@H](C)OC(=O)/C(C)=C\CC(=O)Nc2cc(O)cc3c2O[C@@]2(CC1)CC(=O)[C@H](C)[C@H]3O2
> 50 µg/mL: all assays above

CC[C@H]1/C=C/[C@@H]([C@@H](C)O)OC(=O)/C(C)=C\CC(=O)Nc2cc(O)cc3c2O[C@@]2(CC1)CC(=O)[C@@H](C)[C@@H]3O2
> 50 µg/mL: all assays above

CC[C@@H](/C=C/[C@H](O)[C@H](C)OC(=O)/C(C)=C\[C@@H]1C(=O)NC2=CC(=O)c3cc(O)c(C)cc3[C@]21O)CCC(=O)O
> 50 µg/mL: all assays above
